{
  "source": "patent US20230393118A1",
  "about": "“DEVICES AND METHODS FOR MONITORING CELLS, TISSUES, OR ORGANS-ON-A-CHIP” (University of Rochester, priority 2020, published 2023)",
  "key": {"[1]": {"conditions": "measured plasma drug concentration or target trough, provided by pharmaceutical makers as general guidelines; cited from earlier work"}, "[2]": {"conditions": "estimated in rodents in the literature; cited from earlier work"}, "[3]": {"tested_on": "16HBE cells", "experiment": "Real-time photonic ring sensor detection of cytokine secretion from 16HBE cells exposed to LPS", "assay_type": "cell-based, human", "conditions": "LPS 1 μg/mL in DMEM, 30 μL/min for 3 hours, 37° C.", "experimental": "16HBE cells were seeded on the membrane of the exemplar device and allowed to adhere to the membrane for 3 hours. The device was then connected to a peristaltic pump, which contacted the cells with Dulbecco's Modified Eagles' Medium (DMEM) at a low flow rate (˜30 μL/min) overnight. The next day, the device was set on a temperature-controlled stage (37° C.) and DMEM doped with LPS (at 1 μg/mL) was flowed over the cells (through the top channel) at 30 μL/min for 3 hours. Spectra were measured continuously to observe any shifts in resonance of the photonic ring resonators over time.\nFIG. 1F is a graph with a Y axis showing the wavelength of light resonant in the test and the control ring sensors, with longer wavelengths towards the top, and an X axis showing time in seconds following exposure of the cells to LPS. […]\nFIG. 1G presents graphs showing the results of subtracting the shifts in the […] (indicating non-specific binding) from that of the […] for two cytokines, IL-6 (left graph) and IL-1B (right-hand graph). […] For the reader's attention, it is noted that the scale of the two graphs is different, with much smaller quantities of cytokine being detected in the right-hand graph. […]"}, "[4]": {"tested_on": "tendon fibroblasts", "experiment": "Tendon fibroblasts seeded on axially-constrained hydrogel treated with TGF-β1", "assay_type": "cell-based", "conditions": "fibroblasts differentiate into myofibroblasts", "text": "Subsequently, activation of α-SMA+ve myofibroblasts is evident even after 28 dpi."}},
  "data": [
    {"molecule": "CO[C@H]1C[C@@H]2CC[C@@H](C)[C@@](O)(O2)C(=O)C(=O)N2CCCC[C@H]2C(=O)O[C@H]([C@H](C)C[C@@H]2CC[C@@H](OCCO)[C@H](OC)C2)CC(=O)[C@H](C)/C=C(\\C)[C@@H](O)[C@@H](OC)C(=O)[C@H](C)C[C@H](C)/C=C/C=C/C=C/1C", "note": "[Everolimus]", "values": [
      {"measurement": "Target whole blood trough concentrations (plasma concentrations)", "setting": "[1]", "value": "5 to 15", "unit": "ng/mL"},
      {"measurement": "ED50", "setting": "[2]", "value": "~0.1 to 2.38", "unit": "mg/kg"}
    ]},
    {"molecule": "CO[C@H]1C[C@@H]2CC[C@@H](C)[C@@](O)(O2)C(=O)C(=O)N2CCCC[C@H]2C(=O)O[C@H]([C@H](C)C[C@@H]2CC[C@@H](O)[C@H](OC)C2)CC(=O)[C@H](C)/C=C(\\C)[C@@H](O)[C@@H](OC)C(=O)[C@H](C)C[C@H](C)/C=C/C=C/C=C/1C", "note": "[Sirolimus]", "values": [
      {"measurement": "Target whole blood trough concentrations (plasma concentrations)", "setting": "[1]", "value": "16 to 24", "unit": "ng/mL"}
    ]},
    {"molecule": "Lipopolysaccharide [LPS]", "values": [
      {"measurement": "Time at which secretion of cytokines (IL-6, IL-1β) begins after LPS exposure", "setting": "[3]", "value": "about 70 minutes"}
    ]},
    {"molecule": "TGF-β1: cytokine used to induce myofibroblast differentiation in tendon fibroblasts", "values": [
      {"measurement": "α-SMA gene (Acta) expression and hydrogel lateral contraction", "setting": "[4]", "value": "dose-dependent increase"}
    ]}
  ]
}
